In patent US6933287B1, “Dramatic simplification of a method to treat neoplastic disease by radiation” (priority 1999, dated 2005):

Assays:
[1] = Half life of CldC with H4U in monkeys; type: in vivo; conditions: effect of H4U
Excerpt: (§1) Furthermore, CldC plus H4U was not toxic to dogs or monkeys. In monkeys and mice, H4U increased the half life of CldC. This is a very important indicator of the efficacy of CldC plus H4U in the treatment of diseases, in particular tumors in humans.

[2] = Half life of CldC with H4U in mice; type: in vivo; conditions: effect of H4U
Excerpt: as §1

thymidylate synthetase [3] = target: T1, thymidylate synthetase (Lacticaseibacillus casei, UniProt P00469); conditions: read-out: Ki for the inhibition of thymidylate synthetase; cited from earlier work
thymidylate synthetase [4] = target: T1, thymidylate synthetase; conditions: cited from earlier work
[5] = system: radiation induced fibrosarcoma, RIF-1; conditions: toxic doses of CldC; cited from earlier work

T1 sequence (P00469 whole entry): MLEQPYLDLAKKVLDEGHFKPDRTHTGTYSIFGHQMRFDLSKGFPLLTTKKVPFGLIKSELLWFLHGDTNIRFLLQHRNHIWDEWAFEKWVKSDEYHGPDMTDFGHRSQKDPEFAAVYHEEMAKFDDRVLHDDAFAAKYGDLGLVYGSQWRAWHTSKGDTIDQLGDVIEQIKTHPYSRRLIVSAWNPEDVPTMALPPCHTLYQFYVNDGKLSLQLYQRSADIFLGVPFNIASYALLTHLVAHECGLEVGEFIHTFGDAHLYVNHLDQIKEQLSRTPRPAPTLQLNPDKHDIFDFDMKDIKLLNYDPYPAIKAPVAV

Row | Compound | Ki (thymidylate synthetase [3]) [nM] | further results
1 | O=C1NC(O)CCN1[C@@H]1O[C@H](CO)[C@@H](O)[C@H]1O (some centres unmarked) [H4U, tetrahydrouridine] |  | half life of CldC [1]: increased; half life of CldC [2]: increased
2 | O=c1[nH]c(=O)n([C@H]2C[C@H](O)[C@@H](COP(=O)(O)O)O2)cc1I [IdUMP] | 1600 | 
3 | O=c1[nH]c(=O)n([C@H]2C[C@H](O)[C@@H](COP(=O)(O)O)O2)cc1Cl [CldUMP] | 190 | dehalogenation by thymidylate synthetase (thymidylate synthetase [4]): not dehalogenated
4 | O=c1[nH]c(=O)n([C@H]2C[C@H](O)[C@@H](COP(=O)(O)O)O2)cc1F [FdUMP] | 15 | 
5 | Nc1nc(=O)n([C@H]2C[C@H](O)[C@@H](CO)O2)cc1Cl [CldC, 5-chloro-2′-deoxycytidine] |  | dose enhancement ratio [5]: 1.6
6 | O=c1[nH]c(=O)n([C@H]2C[C@H](O)[C@@H](COP(=O)(O)O)O2)cc1Br [BrdUMP] | 1400 | 
